Test results taken from US10253052B2, “HBED-bisphosphonates, radiometal conjugates and their use as theranostic agents” (Five Eleven Pharma Inc., priority 2015, dated 2019).
Where “and” joins values, the source holds several entries; their conditions need not be identical. Identical values can stand only once. Entries after “also recorded” stand apart in the source; their conditions may differ.

Experiments:
[1] = In vivo biodistribution in mice; parameters: species or system normal CD-1 male mice; details: for bone to blood ratio / bone to muscle ratio / Biodistribution: Blood / Biodistribution: Bone / Biodistribution: Brain / Biodistribution: Heart / Biodistribution: Kidney / Biodistribution: Liver / Biodistribution: Lung / Biodistribution: Muscle / Biodistribution: Pancreas / Biodistribution: Skin / Biodistribution: Spleen: iv
Method in brief: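 Uptake values are % injected dose per gram of wet tissue, from gamma counting of weighed organs with tibia plus femur taken as bone. Tracers (20-30 μCi per animal) were given i.v. to healthy male CD-1 mice (25-30 g), with sacrifice at 2, 30, 60 and 120 min post injection.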

[2] = Micro-PET imaging in normal mice; type: in vivo, normal CD-1 male mice; details: 15 min scan at 60 min post-injection
Procedure: [^68Ga]1a, [^68Ga]BPAMD and [^18F]NaF were tested in normal CD-1 male mice. [^68Ga]1g was tested in PSMA expressing LNCaP tumor bearing nude mice. Mice received 300-500 uCi radiotracer through a tail vein injection. PET imaging was performed under isoflurane anaesthesia (2% isoflurane, 1.5 L/min oxygen). The microPET imaging was performed with a small animal PET (Mosaic by Phillips, USA). During PET measurements, the animals were placed in the prone position. At 60 min post injection of the radiotracer, data acquisition was performed for 15 min.

[3] = In vitro binding to hydroxyapatite; details: 20 mg hydroxyapatite in saline, 10 min at room temperature
Method in brief: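 Binding is given as the percentage of ^68Ga activity retained by hydroxyapatite, measured by gamma counting of the solid versus the pooled supernatant and saline washes. The tracer (1 μCi) was exposed for 10 min at room temperature to hydroxyapatite pre-soaked 24 h in isotonic saline.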

SMILES: [18F-].[Na+] [[^18F]NaF, reference compound]
- bone to blood ratio ([1]; 2 min): 1.9
- bone to muscle ratio ([1]; 2 min): 7.2
- Biodistribution: Blood ([1]; 2 min post injection): 5.56 ± 0.37 % dose/g
- Biodistribution: Bone ([1]; 2 min post injection): 10.8 ± 0.51 % dose/g
- Biodistribution: Brain ([1]; 2 min post injection): 0.22 ± 0.07 % dose/g
- Biodistribution: Heart ([1]; 2 min post injection): 2.80 ± 0.24 % dose/g
- Biodistribution: Kidney ([1]; 2 min post injection): 10.4 ± 1.22 % dose/g
- Biodistribution: Liver ([1]; 2 min post injection): 2.56 ± 0.24 % dose/g
- Biodistribution: Lung ([1]; 2 min post injection): 3.37 ± 0.17 % dose/g
- Biodistribution: Muscle ([1]; 2 min post injection): 1.50 ± 0.06 % dose/g
- Biodistribution: Pancreas ([1]; 2 min post injection): 1.76 ± 0.07 % dose/g
- Biodistribution: Skin ([1]; 2 min post injection): 2.35 ± 0.45 % dose/g
- Biodistribution: Spleen ([1]; 2 min post injection): 2.33 ± 0.14 % dose/g
- bone to blood ratio ([1]; 30 min): 38
- bone to muscle ratio ([1]; 30 min): 73
- Biodistribution: Blood ([1]; 30 min (0.5 hr) post injection): 0.64 ± 0.08 % dose/g
- Biodistribution: Bone ([1]; 30 min (0.5 hr) post injection): 24.2 ± 2.71 % dose/g
- Biodistribution: Brain ([1]; 30 min (0.5 hr) post injection): 0.10 ± 0.02 % dose/g
- Biodistribution: Heart ([1]; 30 min (0.5 hr) post injection): 0.96 ± 0.23 % dose/g
- Biodistribution: Kidney ([1]; 30 min (0.5 hr) post injection): 1.70 ± 0.62 % dose/g
- Biodistribution: Liver ([1]; 30 min (0.5 hr) post injection): 0.65 ± 0.17 % dose/g
- Biodistribution: Lung ([1]; 30 min (0.5 hr) post injection): 0.55 ± 0.11 % dose/g
- Biodistribution: Muscle ([1]; 30 min (0.5 hr) post injection): 0.33 ± 0.11 % dose/g
- Biodistribution: Pancreas ([1]; 30 min (0.5 hr) post injection): 0.42 ± 0.27 % dose/g
- Biodistribution: Skin ([1]; 30 min (0.5 hr) post injection): 0.51 ± 0.11 % dose/g
- Biodistribution: Spleen ([1]; 30 min (0.5 hr) post injection): 0.93 ± 0.56 % dose/g
- bone to blood ratio ([1]; 60 min): 161
- bone to muscle ratio ([1]; 60 min): 291 and 281
- Biodistribution: Blood ([1]; 60 min (1 hr) post injection): 0.15 ± 0.01 % dose/g
- Biodistribution: Bone ([1]; 60 min (1 hr) post injection): 24.6±3.2 % dose/g and 24.6 ± 3.18 % dose/g
- Biodistribution: Brain ([1]; 60 min (1 hr) post injection): 0.06 ± 0.01 % dose/g
- Biodistribution: Heart ([1]; 60 min (1 hr) post injection): 0.18 ± 0.02 % dose/g
- Biodistribution: Kidney ([1]; 60 min (1 hr) post injection): 0.68 ± 0.36 % dose/g
- Biodistribution: Liver ([1]; 60 min (1 hr) post injection): 0.13 ± 0.01 % dose/g
- Biodistribution: Lung ([1]; 60 min (1 hr) post injection): 0.14 ± 0.01 % dose/g
- Biodistribution: Muscle ([1]; 60 min (1 hr) post injection): 0.09 ± 0.02 % dose/g
- Biodistribution: Pancreas ([1]; 60 min (1 hr) post injection): 0.07 ± 0.00 % dose/g
- Biodistribution: Skin ([1]; 60 min (1 hr) post injection): 0.11 ± 0.02 % dose/g
- Biodistribution: Spleen ([1]; 60 min (1 hr) post injection): 0.12 ± 0.02 % dose/g
- bone to blood ratio ([1]; 120 min): 760
- bone to muscle ratio ([1]; 120 min): 593
- Biodistribution: Blood ([1]; 120 min post injection): 0.03 ± 0.00 % dose/g
- Biodistribution: Bone ([1]; 120 min post injection): 25.2 ± 3.89 % dose/g
- Biodistribution: Brain ([1]; 120 min post injection): 0.04 ± 0.00 % dose/g
- Biodistribution: Heart ([1]; 120 min post injection): 0.04 ± 0.00 % dose/g
- Biodistribution: Kidney ([1]; 120 min post injection): 0.57 ± 0.43 % dose/g
- Biodistribution: Liver ([1]; 120 min post injection): 0.03 ± 0.01 % dose/g
- Biodistribution: Lung ([1]; 120 min post injection): 0.04 ± 0.01 % dose/g
- Biodistribution: Muscle ([1]; 120 min post injection): 0.04 ± 0.04 % dose/g
- Biodistribution: Pancreas ([1]; 120 min post injection): 0.02 ± 0.00 % dose/g
- Biodistribution: Skin ([1]; 120 min post injection): 0.03 ± 0.00 % dose/g
- Biodistribution: Spleen ([1]; 120 min post injection): 0.03 ± 0.01 % dose/g
- Micro-PET localization (in words) [2]: localized in the spines of mice
- Hydroxyapatite Binding (%) [3]: 78.4 ± 3.9%

SMILES: O=C([O-])CN(CCN(CC(=O)[O-])Cc1cc(CCC(=O)NC(P(=O)(O)O)P(=O)(O)O)ccc1[O-])Cc1cc(CCC(=O)O)ccc1[O-].[68Ga+3] [[^68Ga]1a]
- bone to blood ratio ([1]; 2 min): 0.9
- bone to muscle ratio ([1]; 2 min): 4.8
- Biodistribution: Blood ([1]; 2 min post injection): 9.39 ± 0.93 % dose/g
- Biodistribution: Bone ([1]; 2 min post injection): 8.60 ± 0.85 % dose/g
- Biodistribution: Brain ([1]; 2 min post injection): 0.31 ± 0.10 % dose/g
- Biodistribution: Heart ([1]; 2 min post injection): 3.28 ± 0.13 % dose/g
- Biodistribution: Kidney ([1]; 2 min post injection): 31.2 ± 1.92 % dose/g
- Biodistribution: Liver ([1]; 2 min post injection): 1.95 ± 0.15 % dose/g
- Biodistribution: Lung ([1]; 2 min post injection): 4.28 ± 0.21 % dose/g
- Biodistribution: Muscle ([1]; 2 min post injection): 1.80 ± 0.16 % dose/g
- Biodistribution: Pancreas ([1]; 2 min post injection): 1.58 ± 0.10 % dose/g
- Biodistribution: Skin ([1]; 2 min post injection): 2.18 ± 0.28 % dose/g
- Biodistribution: Spleen ([1]; 2 min post injection): 1.89 ± 0.20 % dose/g
- bone to blood ratio ([1]; 30 min): 36
- bone to muscle ratio ([1]; 30 min): 96
- Biodistribution: Blood ([1]; 30 min (0.5 hr) post injection): 0.45 ± 0.10 % dose/g
- Biodistribution: Bone ([1]; 30 min (0.5 hr) post injection): 16.0 ± 1.22 % dose/g
- Biodistribution: Brain ([1]; 30 min (0.5 hr) post injection): 0.02 ± 0.01 % dose/g
- Biodistribution: Heart ([1]; 30 min (0.5 hr) post injection): 0.22 ± 0.02 % dose/g
- Biodistribution: Kidney ([1]; 30 min (0.5 hr) post injection): 1.54 ± 0.29 % dose/g
- Biodistribution: Liver ([1]; 30 min (0.5 hr) post injection): 0.32 ± 0.20 % dose/g
- Biodistribution: Lung ([1]; 30 min (0.5 hr) post injection): 0.38 ± 0.03 % dose/g
- Biodistribution: Muscle ([1]; 30 min (0.5 hr) post injection): 0.17 ± 0.03 % dose/g
- Biodistribution: Pancreas ([1]; 30 min (0.5 hr) post injection): 0.30 ± 0.27 % dose/g
- Biodistribution: Skin ([1]; 30 min (0.5 hr) post injection): 0.42 ± 0.12 % dose/g
- Biodistribution: Spleen ([1]; 30 min (0.5 hr) post injection): 0.17 ± 0.01 % dose/g
- bone to blood ratio ([1]; 60 min): 118
- Biodistribution: Blood ([1]; 60 min (1 hr) post injection): 0.20 ± 0.06 % dose/g
- Biodistribution: Bone ([1]; 60 min (1 hr) post injection): 23.5±1.4 % dose/g and 23.5 ± 1.42 % dose/g
- Biodistribution: Brain ([1]; 60 min (1 hr) post injection): 0.02 ± 0.01 % dose/g
- Biodistribution: Heart ([1]; 60 min (1 hr) post injection): 0.12 ± 0.02 % dose/g
- Biodistribution: Kidney ([1]; 60 min (1 hr) post injection): 1.63 ± 0.71 % dose/g
- Biodistribution: Liver ([1]; 60 min (1 hr) post injection): 0.17 ± 0.01 % dose/g
- Biodistribution: Lung ([1]; 60 min (1 hr) post injection): 0.21 ± 0.03 % dose/g
- Biodistribution: Muscle ([1]; 60 min (1 hr) post injection): 0.08 ± 0.02 % dose/g
- Biodistribution: Pancreas ([1]; 60 min (1 hr) post injection): 0.09 ± 0.02 % dose/g
- Biodistribution: Skin ([1]; 60 min (1 hr) post injection): 0.19 ± 0.05 % dose/g
- Biodistribution: Spleen ([1]; 60 min (1 hr) post injection): 0.10 ± 0.02 % dose/g
- bone to blood ratio ([1]; 120 min): 320
- bone to muscle ratio ([1]; 120 min): 447
- Biodistribution: Blood ([1]; 120 min post injection): 0.07 ± 0.03 % dose/g
- Biodistribution: Bone ([1]; 120 min post injection): 23.9 ± 1.99 % dose/g
- Biodistribution: Brain ([1]; 120 min post injection): 0.01 ± 0.00 % dose/g
- Biodistribution: Heart ([1]; 120 min post injection): 0.07 ± 0.01 % dose/g
- Biodistribution: Kidney ([1]; 120 min post injection): 0.92 ± 0.10 % dose/g
- Biodistribution: Liver ([1]; 120 min post injection): 0.14 ± 0.02 % dose/g
- Biodistribution: Lung ([1]; 120 min post injection): 0.12 ± 0.03 % dose/g
- Biodistribution: Muscle ([1]; 120 min post injection): 0.05 ± 0.01 % dose/g
- Biodistribution: Pancreas ([1]; 120 min post injection): 0.05 ± 0.01 % dose/g
- Biodistribution: Skin ([1]; 120 min post injection): 0.13 ± 0.03 % dose/g
- Biodistribution: Spleen ([1]; 120 min post injection): 0.09 ± 0.03 % dose/g
- Biodistribution result in words (organ uptake, retention, excretion) ([1]; normal mice after iv injection): excellent bone uptake and fast kidney excretion; also recorded: excellent bone uptake and retention
- Micro-PET localization (in words) [2]: localized in the spines of mice
- Hydroxyapatite Binding (%) [3]: 92.3 ± 1.1%
